US20260297042A1, “BIARYLAMIDE DERIVATIVES AND THEIR USE AS PKMYT1 INHIBITORS” (CANCER RESEARCH TECHNOLOGY LIMITED, priority 2023, published 2026)

How the values were obtained:
Human PKMYT1 = molecular target: T1, Human PKMYT1 (Homo sapiens, UniProt Q99640); test: PKMYT1 biochemical ADP-Glo enzymatic assay; settings: ADP-Glo; 15 nM PKMYT1 kinase domain, 500 µM ATP, 60 minutes at 26° C.; banded
T1 construct: Human PKMYT1 75-362 was cloned as a TEV cleavable 6xHis fusion; 6xHis (TEV cleavable) (cleaved yes); made in house; host or cells: bacterial cells
T1 sequence (Q99640 75-362): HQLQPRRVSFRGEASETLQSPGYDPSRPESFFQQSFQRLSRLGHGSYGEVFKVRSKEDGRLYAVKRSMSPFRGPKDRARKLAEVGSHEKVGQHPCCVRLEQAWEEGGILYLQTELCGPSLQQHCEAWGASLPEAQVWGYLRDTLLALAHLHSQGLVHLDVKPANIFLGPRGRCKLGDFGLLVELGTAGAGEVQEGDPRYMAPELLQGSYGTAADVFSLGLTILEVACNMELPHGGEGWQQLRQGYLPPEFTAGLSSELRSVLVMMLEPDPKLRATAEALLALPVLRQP
Summary of the method: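 Luminescent ADP-Glo Max read-out of ADP produced by 15 nM PKMYT1 (residues 75-362, bacterial, His-tag removed) from 500 µM ATP without peptide substrate. Reaction: 50 mM HEPES pH 7.5, 10 mM MgCl2, 1 mM EGTA, 0.01% Brij-35, 60 min, 26 °C. IC50 values fitted from 10-point curves.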

WEE1 = molecular target: T2, WEE1 (Homo sapiens, UniProt P30291); test: Selectivity versus WEE1 assay (ADP-Glo enzymatic assay); assay type: biochemical; settings: banded; for IC50: ADP-Glo, 15 nM WEE1, 60 minutes at 26° C.; for PKMYT1 vs. WEE1 selectivity: fold difference in selectivity for PKMYT1 over WEE1, ">N" = at least in this band but could be higher
T2 construct: purchased Thermo Fisher PR7373A
T2 sequence (P30291 whole entry): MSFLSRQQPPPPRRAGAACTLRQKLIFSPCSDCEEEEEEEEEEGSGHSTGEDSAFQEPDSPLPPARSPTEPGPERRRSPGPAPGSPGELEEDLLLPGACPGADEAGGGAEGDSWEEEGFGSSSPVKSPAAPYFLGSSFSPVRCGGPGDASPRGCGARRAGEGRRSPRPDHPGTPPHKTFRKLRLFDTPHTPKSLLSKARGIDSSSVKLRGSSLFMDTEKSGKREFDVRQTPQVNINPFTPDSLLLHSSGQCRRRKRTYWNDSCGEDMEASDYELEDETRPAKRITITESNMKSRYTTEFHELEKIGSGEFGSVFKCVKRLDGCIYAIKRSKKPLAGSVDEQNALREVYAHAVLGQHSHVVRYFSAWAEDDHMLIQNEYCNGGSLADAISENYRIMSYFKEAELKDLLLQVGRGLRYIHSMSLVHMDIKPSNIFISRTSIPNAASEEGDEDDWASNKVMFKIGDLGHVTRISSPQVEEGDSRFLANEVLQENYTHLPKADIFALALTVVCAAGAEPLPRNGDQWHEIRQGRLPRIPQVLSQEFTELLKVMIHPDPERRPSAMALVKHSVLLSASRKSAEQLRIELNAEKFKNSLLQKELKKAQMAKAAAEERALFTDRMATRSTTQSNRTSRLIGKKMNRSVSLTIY
Summary of the method: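 ADP-Glo luminescence read-out after a 60 min reaction at 26° C, initiated by 30 µM ATP, with 15 nM enzyme in HEPES pH 7.5/MgCl2/EGTA/Brij-35 buffer containing 1% DMSO. Replicate IC50 values had to agree within 3-fold and fits needed r2 >0.9.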

| Compound | IC50 (Human PKMYT1) | IC50 (WEE1) | PKMYT1 vs. WEE1 selectivity (WEE1) |
| --- | --- | --- | --- |
| Cc1ccc(O)c(C)c1NC(=O)c1cnc(Nc2ccn(CC(=O)NC(C)(C)CO)n2)s1 [BAA-138, 2-[1-[2-[(2-hydroxy-1,1-dimethyl-ethyl)amino]-2-oxo-ethyl]pyrazol-3-ylJamino]-N-(3-hydroxy-2,6-dimethyl-phenyl)thiazole-5-carboxamide] | 0.05 to 1 µM | > 11 µM | X (100-<1000 fold) |
| CNC(=O)Cn1ccc(Nc2ncc(C(=O)Nc3c(C)ccc(O)c3C)s2)n1 [BAA-141, N-(3-hydroxy-2,6-dimethyl-phenyl)-2-[[1-[2-(methylamino)-2-oxo-ethyl]pyrazol-3-yl]amino]thiazole-5-carboxamide] | < 0.05 µM | > 11 µM | X (100-<1000 fold) |
| Cc1ccc(O)c(C)c1NC(=O)c1cnc(Nc2ccn(CC(=O)N3CCN(S(C)(=O)=O)CC3)n2)s1 [BAA-142] | < 0.05 µM | > 11 µM | X (100-<1000 fold) |
| Cc1ccc(O)c(C)c1NC(=O)c1cnc(Nc2ccn(CC(=O)N3C[C@@H]4C[C@H]3CN4C(=O)OC(C)(C)C)n2)s1 [BAA-143] | < 0.05 µM | > 11 µM | Y (1000-5000 fold) |
| Cc1ccc(O)c(C)c1NC(=O)c1cnc(Nc2ccn(CC(=O)N3CC4(C3)CN(C(=O)OC(C)(C)C)C4)n2)s1 [BAA-144, tert-butyl 6-[2-[3-[[5-[(3-hydroxy-2,6-dimethyl-phenyl)carbamoyl]thiazol-2-yl]amino]pyrazol-1-yl]acetyl]-2,6-diazaspiro[3.3]heptane-2-carboxylate] | < 0.05 µM | 1 to 11 µM | X (100-<1000 fold) |
| CC(=O)N1CCN(C(=O)Cn2ccc(Nc3ncc(C(=O)Nc4c(C)ccc(O)c4C)s3)n2)CC1 [BAA-145] | < 0.05 µM | > 11 µM | Y (1000-5000 fold) |
| Cc1ccc(O)c(C)c1NC(=O)c1cnc(Nc2ccn(CC(=O)NCC(C)(C)O)n2)s1 [BAA-146] | < 0.05 µM | > 11 µM | Y (1000-5000 fold) |
| Cc1ccc(O)c(C)c1NC(=O)c1cnc(Nc2ccn(CC(=O)NCCO)n2)s1 [BAA-147, N-(3-hydroxy-2,6-dimethyl-phenyl)-2-[[1-[2-(2-hydroxyethylamino)-2-oxo-ethyl]pyrazol-3-yl]amino]thiazole-5-carboxamide] | < 0.05 µM | > 11 µM | Y (1000-5000 fold) |
| Cc1ccc(O)c(C)c1NC(=O)c1cnc(Nc2ccn(CC(=O)N3CCCCC3)n2)s1 [BAA-149, N-(3-hydroxy-2,6-dimethyl-phenyl)-2-[[1-[2-oxo-2-(1-piperidyl)ethyl]pyrazol-3-yl]amino]thiazole-5-carboxamide] | < 0.05 µM | > 11 µM | Y (1000-5000 fold) |
| Cc1ccc(O)c(C)c1NC(=O)c1cnc(Nc2ccn(CC(=O)N3CCNC(=O)C3)n2)s1 [BAA-150] | < 0.05 µM | > 11 µM | X (100-<1000 fold) |
| Cc1ccc(O)c(C)c1NC(=O)c1cnc(Nc2ccn(CC(=O)NC3CCN(C)CC3)n2)s1 [BAA-151] | 0.05 to 1 µM | > 11 µM | X (100-<1000 fold) |
| Cc1ccc(O)c(C)c1NC(=O)c1cnc(Nc2ccn(CC(=O)N3CCN(CCO)CC3)n2)s1 [BAA-153] | < 0.05 µM | > 11 µM | Y (1000-5000 fold) |
| Cc1ccc(O)c(C)c1NC(=O)c1cnc(Nc2ccn(CC(=O)N3CCN(C(=O)N(C)C)CC3)n2)s1 [BAA-154] | < 0.05 µM | > 11 µM | Y (1000-5000 fold) |
| Cc1ccc(O)c(C)c1NC(=O)c1cnc(Nc2ccn(CC(=O)N3CCC4(CC3)CCN(C(=O)OC(C)(C)C)C4)n2)s1 [BAA-155, tert-butyl 8-[2-[3-[5-[(3-hydroxy-2,6-dimethyl-phenyl)carbamoyl]thiazol-2-ylamino]pyrazol-1-yl]acetyl]-2,8-diazaspiro[4.5]decane-2-carboxylate] | < 0.05 µM | > 11 µM | X (100-<1000 fold) |

More lines, now with the values ahead:

| IC50 (Human PKMYT1) | IC50 (WEE1) | PKMYT1 vs. WEE1 selectivity (WEE1) | Compound |
| --- | --- | --- | --- |
| < 0.05 µM | 1 to 11 µM | X (100-<1000 fold) | Cc1ccc(O)c(C)c1NC(=O)c1cnc(Nc2cc(C(N)=O)n(C)n2)s1 [BAA-130, 2-[(5-Carbamoyl-1-methyl-pyrazol-3-yl)amino]-N-(3-hydroxy-2,6-dimethyl-phenyl)thiazole-5-carboxamide] |
| < 0.05 µM | > 11 µM | Y (1000-5000 fold) | Cc1ccc(O)c(C)c1NC(=O)c1cnc(Nc2cc(C(N)=O)nn2C)s1 [BAA-131, 2-[(5-Carbamoyl-2-methyl-pyrazol-3-yl)amino]-N-(3-hydroxy-2,6-dimethyl-phenyl)thiazole-5-carboxamide] |
| < 0.05 µM | > 11 µM | Y (1000-5000 fold) | Cc1ccc(O)c(C)c1NC(=O)c1cnc(Nc2ccn(CC(=O)N3CCC(O)CC3)n2)s1 [BAA-132, N-(3-Hydroxy-2,6-dimethyl-phenyl)-2-[[1-[2-(4-hydroxy-1-piperidyl)-2-oxo-ethyl]pyrazol-3-yl]amino]thiazole-5-carboxamide] |
| < 0.05 µM | 1 to 11 µM | X (100-<1000 fold) | Cc1ccc(O)c(C)c1NC(=O)c1cnc(Nc2ccn(CC(N)=O)n2)s1 [BAA-133, 2-[[1-(2-amino-2-oxo-ethyl)pyrazol-3-yl]amino]-N-(3-hydroxy-2,6-dimethyl-phenyl) thiazole-5-carboxamide] |
| < 0.05 µM | > 11 µM | Y (1000-5000 fold) | COCCOCCNC(=O)Cn1ccc(Nc2ncc(C(=O)Nc3c(C)ccc(O)c3C)s2)n1 [BAA-134, N-(3-hydroxy-2,6-dimethyl-phenyl)-2-[[1-[2-[2-(2-methoxyethoxy)ethylamino]-2-oxo-ethyl]pyrazol-3-yl]amino]thiazole-5-carboxamide] |
| < 0.05 µM | 1 to 11 µM | X (100-<1000 fold) | CCCCCCCNC(=O)Cn1ccc(Nc2ncc(C(=O)Nc3c(C)ccc(O)c3C)s2)n1 [BAA-135] |
| < 0.05 µM | > 11 µM | Y (1000-5000 fold) | Cc1ccc(O)c(C)c1NC(=O)c1cnc(Nc2ccn(CC(=O)N3CCC(F)(F)CC3)n2)s1 [BAA-136, 2-[[1-[2-(4,4-difluoro-1-piperidyl)-2-oxo-ethyl]pyrazol-3-yl]amino]-N-(3-hydroxy-2,6-dimethyl-phenyl)thiazole-5-carboxamide] |
| < 0.05 µM | > 11 µM | Y (1000-5000 fold) | Cc1ccc(O)c(C)c1NC(=O)c1cnc(Nc2ccn(CC(=O)N3CC[C@@H](O)C3)n2)s1 [BAA-139, N-(3-hydroxy-2,6-dimethyl-phenyl)-2-[[1-[2-[(3R)-3-hydroxypyrrolidin-1-yl]-2-oxo-ethyl]pyrazol-3-yl]amino]thiazole-5-carboxamide] |
| < 0.05 µM | > 11 µM | Y (1000-5000 fold) | Cc1ccc(O)c(C)c1NC(=O)c1cnc(Nc2ccn(CC(=O)N3CCN(C(=O)OC(C)(C)C)CC3)n2)s1 [BAA-140, tert-butyl 4-[2-[3-[5-[(3-hydroxy-2,6-dimethyl-phenyl)carbamoyl]thiazol-2-ylamino]pyrazol-1-yl]acetyl]piperazine-1-carboxylate] |
